Source: paper doi:10.1101/2023.05.15.540887, “Comparative analysis of drug-like EP300/CREBBP acetyltransferase inhibitors” (bioRxiv, 2023)
Like-named read-outs stand apart in the source and are kept apart here.

What was measured:
SNB-19 = assay: NCI-60 growth inhibition (sulforhodamine B); format: cell-based, human; settings: SNB-19 (CNS Cancer), negative log of Molar conc., LCONC -8
HOP-92 = assay: NCI-60 growth inhibition (sulforhodamine B); format: cell-based, human; settings: HOP-92 (Non-Small Cell Lung Cancer), negative log of Molar conc., LCONC -8
NCI-60 cell line panel = assay: NCI-60 cell line screen growth inhibition (sulforhodamine B), whole panel; format: cell-based, human; settings: compared among 1-3
Description: In principle the phenotype elicited by any single small molecule can be due to either an on- or off-target effect; however, if multiple chemically distinct small molecules designed to target a single gene all elicit the same phenotype, one’s confidence in their on-target mechanism becomes greater. As such, we sought to apply our knowledge of the comparative potencies of 1-3 to test whether the simplest phenotype caused by EP300/CREBBP inhibitors – cell death – was consistent with their effects on histone acetylation and a putative on-target mechanism. […] Subsequently, the COMPARE algorithm was used to compare the patterns of growth inhibition elicited by 1-3 in the NCI-60 assay against the >150,000 compounds analyzed in the screen to date.[29] […] Finally, the specificity of CPI-1612 (3) was directly assessed using quantitative LC-MS analysis of histone acetylation in treated cells,[33] focusing on four abundant histone acetylation markers whose writers are well-characterized: H3K9Ac (written by KAT2A/B), H3K14Ac (KAT7), H3K18Ac (EP300/CREBBP), and H3K23Ac (KAT6A/B; Fig. 3e).[26] […]

DU-145 = assay: NCI-60 growth inhibition (sulforhodamine B); format: cell-based; settings: Homo sapiens, DU-145, Prostate Cancer, negative log of Molar value, LCONC -8, EXPID 2301NS84
MDA-MB-468 = assay: NCI-60 growth inhibition (sulforhodamine B); settings: Homo sapiens
SR = assay: NCI-60 growth inhibition (sulforhodamine B); format: cell-based, human; settings: SR (Leukemia), negative log of Molar conc., LCONC -8
SF-539 = assay: NCI-60 growth inhibition (sulforhodamine B); format: cell-based, human; settings: SF-539 (CNS Cancer), negative log of Molar conc., LCONC -8
K-562 = assay: NCI-60 growth inhibition (sulforhodamine B); format: cell-based, human; settings: K-562 (Leukemia), negative log of Molar conc., LCONC -8
NCI-H460 = assay: NCI-60 growth inhibition (sulforhodamine B); format: cell-based, human
OVCAR-5 = assay: NCI-60 growth inhibition (sulforhodamine B); format: cell-based, human; settings: OVCAR-5 (Ovarian Cancer), negative log of Molar conc., LCONC -8
[1] = Homo sapiens, read-out: GI50 NLOGVALUE (converted)
[2] = Homo sapiens, read-out: IC50 NLOGVALUE
[3] = Homo sapiens, read-out: LC50 NLOGVALUE

C[C@H](CN[C@@H](C(=O)Nc1ccc(-c2cnn(C)c2)cn1)c1ccccc1)c1ccc(C#N)cc1 [CPI-1612]
GI50 (SNB-19; [1]): 0.0955 µM | IC50 (SNB-19; [2]): > 100 µM | CC50 (SNB-19; [3]): > 100 µM | TGI NLOGVALUE (SNB-19): 4 | TGI NLOGVALUE (HOP-92): 4 | GI50 (HOP-92; [1]): 1.62 µM | IC50 (HOP-92; [2]): > 100 µM | CC50 (HOP-92; [3]): > 100 µM | inhibition of cell growth, NCI-60 screen (NCI-60 cell line panel): most potent inhibitor of cell growth | GI50 (DU-145; read-out: GI50 NLOGVALUE (converted)): 21.4 µM | IC50 (DU-145; read-out: IC50 NLOGVALUE): > 100 µM | CC50 (DU-145; read-out: LC50 NLOGVALUE): > 100 µM | GI50 (MDA-MB-468; MDA-MB-468, read-out: GI50 NLOGVALUE): < 0.01 µM | IC50 (MDA-MB-468; MDA-MB-468, read-out: IC50 NLOGVALUE): > 100 µM | GI50 (SR; [1]): 1.86 µM | IC50 (SR; Homo sapiens, read-out: IC50 NLOGVALUE (converted)): 56.2 µM | TGI NLOGVALUE (SR): 4 | GI50 (SF-539; [1]): 2.09 µM | IC50 (SF-539; [2]): > 100 µM | CC50 (SF-539; [3]): > 100 µM | TGI NLOGVALUE (SF-539): 4 | GI50 (K-562; Homo sapiens, K562, read-out: GI50 NLOGVALUE): < 0.01 µM | IC50 (K-562; Homo sapiens, K562, read-out: IC50 NLOGVALUE): < 0.01 µM | CC50 (K-562; Homo sapiens, K562, read-out: LC50 NLOGVALUE): > 100 µM | TGI NLOGVALUE (K-562): 4 | GI50 (NCI-H460; Homo sapiens, NCI-H460, read-out: GI50 AVGDATA (converted)): 14.5 µM | GI50 (NCI-H460; Homo sapiens, NCI-H460 (Non-Small Cell Lung Cancer), negative log of Molar conc., LCONC -8, read-out: GI50 NLOGVALUE (converted)): 14.1 µM | IC50 (NCI-H460; Homo sapiens, NCI-H460 (Non-Small Cell Lung Cancer), negative log of Molar conc., LCONC -8, read-out: IC50 NLOGVALUE (converted)): 20.9 µM | CC50 (NCI-H460; Homo sapiens, NCI-H460 (Non-Small Cell Lung Cancer), negative log of Molar conc., LCONC -8, read-out: LC50 NLOGVALUE): > 100 µM | TGI NLOGVALUE (NCI-H460; NCI-H460 (Non-Small Cell Lung Cancer), negative log of Molar conc., LCONC -8): 4 | GI50 (OVCAR-5; Homo sapiens, read-out: GI50 NLOGVALUE): > 100 µM | IC50 (OVCAR-5; [2]): > 100 µM | CC50 (OVCAR-5; [3]): > 100 µM | TGI NLOGVALUE (OVCAR-5): 4
